For one experiment, the system named is Balb/c mice. As to the kind of experiment: Light model assay (constant light damage, eyedrops). Format: in vivo, mouse. Particulars: continuous light 7 days, rows of photoreceptors. The text has this: The light model assay is generally accepted as a model of age related macular degeneration (AMD). […] In particular, oxidative damage has been detected by immunohistochemistry, detecting the presence of oxidized and tyrosine-phosphorylated proteins as well as the upregulation of endogenous antioxidants such as thioredoxin and glutathione peroxidase. […] Additional indirect evidence for the involvement of oxidative stress in photoreceptor degeneration has been provided by treatment of photodamaged retinas with antioxidants such as dimethylthiourea, or the treatment of N-methyl-N-nitrosourea (MNU)-challenged rats with the antioxidant DHA.
The light model assay was used to further test the therapeutic potential of the compounds of the invention. Photoreceptors from albino animals are very sensitive to constant light, lacking the RPE pigment to protect them. Thus, Balb/c mice were exposed to continuous light for 7 days, which caused loss of about 50% of the photoreceptor cells as measured via histology. To test the potential therapeutic efficacy, eyedrops were formulated in 0.1% Bij 35 in […], applied once or twice daily throughout the period of light exposure, and their effect assessed on the light-induced degeneration of photoreceptor cells morphologically and electrophysiologically, 10 days after the onset of the CL exposure.

The test system of experiment [1] is 661W or C6 cells. As to the kind of experiment: MTT assay, protection against calcium-ionophore A23187. Format: cell-based. Particulars: 1 μM A23187, 24 h. On the procedure: The compound 3-(4,5-Dimethylthiazol-2-yl)-2,5-diphenyltetrazolium bromide (MTT) is a tetrazolium ion that is reduced to a blue formazan dye via several families of NAD(P)H-dependent oxidoreductases. Formation of the formazan dye from MTT or other related tetrazolium dyes are commonly used as a viability assay even though, in fact, the assay is a metabolic capacity assay.
In this assay, 661W or C6 cells were maintained in DMEM supplemented with 10% FBS. 100 μL of 70,000 cells/mL cells were seeded into each well of 96 well plates using DMEM supplemented with 5% FBS. Cells were then allowed to grow to confluency for 48 hours. The compounds of the invention were added in 2 μL media and calcium-ionophore A23187 was then added in 1 μL for a final concentration of 1 μM and after 24 h, 20 μL of […] MTT were added to each well and the cells were incubated for another 4 h after which 100 μL of 1% SDS in 0.01M aqueous HCl were added to each well and the plates were incubated overnight. Absorbance was measured at […] (background correction). The 1 μM ionophore A23187 caused about 50% loss in MTT signal at 24 h. Protection was calculated as the increase in absorbance of treatment groups normalized to the vehicle control.

Experiment [2] deals with 661W or C6 cells. The experiment in a line: XF FCCP-uncoupled oxygen consumption rate assay (IBMX challenge).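 For all read-outs here: values normalized to the vehicle control.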 Format: cell-based. Conditions: 1 h pretreatment, 600 μM IBMX, 24 h, read-out: XF FCCP OCR (% Ctrl); for activity at 0.001 µM: compound 1 nM. The protocol:
The XF FCCP-uncoupled oxygen consumption rate assay assesses mitochondrial capacity by measuring cellular respiration. It was shown that the maximum FCCP-uncoupled oxygen consumption rate (OCR) was a good estimate of maximal mitochondrial capacity (Beeson 2010) and that IBMX treatment of 661W or C6 cells for 24 h caused a loss in maximal uncoupled OCR (Perron 2013). Thus, cells were pretreated with the exemplified compounds for 1 h, added 600 μM IBMX and then measured the uncoupled rate after 24 h. In brief, the OCR measurements were performed using a Seahorse Bioscience XF instrument (Seahorse Bioscience, Billerica, Md.), as previously published (Perron 2013). O2 leakage through the plastic sides and bottom of the plate was accounted for using the AKOS algorithm in the XF software package. Cells were plated on 96- or 24-well custom plates designed for use in the XF and grown to confluency in DMEM+5% FBS (48 h). The medium was then replaced with DMEM+1% FBS for 24 h, along with any treatments.

Experiment [3] deals with retinal explants from Ser344ter-3 rats. As to the kind of experiment: S334ter assay, retinal explants. Conditions: P12-P17 retinal explants. Format: cell-based, rat. The protocol:
To further evaluate neuroprotection, certain compounds of the invention were evaluated with the Ser344ter-3 rats in which a truncation in the rhodopsin […] eliminated a phosphorylation site. It has been shown that the Ser344ter-3 rhodopsin was extensively misfolded causing induction of ER stress genes BiP and CHOP (Kroeger 2012). […] Statistically significant protection against loss of photoreceptor cell nuclei was observed (Table 5 below).

The test system of experiment [4] is rd1 mouse retina organ cultures. As to the kind of experiment: Retinal degeneration assay, rd1 mouse retinal explants. Format: cell-based. Conditions: rows of photoreceptors in ONL, explants cultured 11 days. On the procedure: It was reasoned that the compounds' activities would enable them to protect against loss of photoreceptors in retinal degenerative animal models. As a translational bridge between the cell line-based assays and in vivo animal studies, mouse retina organ cultures were utilized. These retinal explants were a powerful ex vivo screening tool, which allowed the testing of photoreceptor cell survival within the retinal network, and the effects of a specific compound were tested like in an in vitro system, without systemic interference. In this assay, the rd1 mouse was utilized. The genotype of the rd1 mouse has a mutation in the β-subunit of the phosphodiesterase gene. […] The genetic deficit and the retinal pathology were very similar to that observed in the patients with βPDE-dependent RP. In these mice, rod photoreceptor degeneration started after postnatal day 10 (P10), progressing rapidly, such that at P21, only 1-2 rows of photoreceptor remained, mainly representing cones. Finally, the rd1 mouse retina was amenable to culturing, replicating both retinal development and degeneration, following the same time course as in vivo. The retinal explants were cultured for 11 days ex vivo. […] At the end of the experiments, tissues were fixed, sectioned and stained with 0.1% toluidine and the numbers of rows of photoreceptors remaining in the outer nuclear layer (ONL) were counted.

For `COc1cccc(C(=O)CC2(O)C(=O)N(CCCN=[N+]=[N-])c3ccc(C)cc32)n1` (stereo not drawn) [Example 28, 1-(3-azidopropyl)-3-hydroxy-3-(2-(6-methoxypyridin-2-yl)-2-oxoethyl)-5-methylindolin-2-one], in the experiment with Balb/c mice (1 mM eyedrops once per day), the “LD Protection (# of rows)” value is 5.55 # of rows. Besides, the “MTT, % protection” value in the experiment on 661W or C6 cells [1] (compound 1 μM) is 65.9%,.

On to `C#CCCCN1C(=O)C(O)(CC(=O)c2c[nH]c3ccccc23)c2cc(C)ccc21` (stereo not drawn) [Example 13, 3-(2-(1H-indol-3-yl)-2-oxoethyl)-3-hydroxy-5-methyl-1-(pent-4-yn-1-yl)indolin-2-one], for which the “LD Protection (# of rows)” value with Balb/c mice (1 mM eyedrops once per day) is 5.44 # of rows. For the same compound, the “MTT, % protection” value in the experiment with 661W or C6 cells [1] (compound 100 nM) is 79.4%,.

Take `CCN1C(=O)C(O)(Cc2cc(OC)c(OC)c(OC)c2)c2cc(C)ccc21` (stereo not drawn) [Example 34, 1-ethyl-3-hydroxy-5-methyl-3-(3,4,5-trimethoxybenzyl)indolin-2-one]: the “LD Protection (# of rows)” value in the experiment with Balb/c mice (10 μM eyedrops once per day) is recorded as 5.47 # of rows. For the same compound, the activity at 0.001 µM with 661W or C6 cells [2] worked out at 94%. The “MTT, % protection” value in the experiment with 661W or C6 cells [1] (compound 1 nM) is given as 82.4%,.

Turning to `COc1ccc(O)c(CC2(OC(=O)c3ccccc3)C(=O)N(CCCC(C)C)c3ccc(C)cc32)c1` (stereo not drawn) [Example 58, 3-(2-hydroxy-5-methoxybenzyl)-5-methyl-1-(4-methylpentyl)-2-oxoindolin-3-yl benzoate], in the experiment on Balb/c mice (100 μM eyedrops once per day), the “LD Protection (# of rows)” value is 6.06 # of rows. Also, in experiment [3] (50 nM), the “s334ter protection (# of rows)” value is recorded as 50 nM, 2.73 # of rows. In the experiment with 661W or C6 cells [2], the activity at 0.001 µM stood at 97%. Further, the “MTT, % protection” value in the experiment on 661W or C6 cells [1] (compound 100 nM) was 100%,.

With `CCCN1C(=O)C(O)(CC(=O)c2c[nH]c3ccccc23)c2cc(Cl)ccc21` (stereo not drawn) [Example 31, 3-(2-(1H-indol-3-yl)-2-oxoethyl)-5-chloro-3-hydroxy-1-propylindolin-2-one], in the experiment with Balb/c mice (1 mM eyedrops once per day), the “LD Protection (# of rows)” value was 5.94 # of rows. For the same compound, in the experiment on 661W or C6 cells [2], the activity at 0.001 µM worked out at 74%. Further, in the experiment with 661W or C6 cells [1] (compound 1 nM), the “MTT, % protection” value was 64.2%,. In addition, in experiment [4] (10 nM), the “rd1 protection (# of rows)” value was 10 nM, 2.53 # of rows.

For the compound `CCCCN1C(=O)C(O)(CC(=O)c2ccccn2)c2ccccc21` (stereo not drawn) [Example 12, 1-butyl-3-hydroxy-3-(2-oxo-2-(pyridin-2-yl)ethyl)indolin-2-one], the “LD Protection (# of rows)” value in the experiment with Balb/c mice (1 mM eyedrops once per day) is listed as 5.33 # of rows. Besides, the “s334ter protection (# of rows)” value in experiment [3] (1 μM) is on record as 1 μM 3.86 # of rows. The activity at 10 µM in the experiment with 661W or C6 cells [2] (compound 10uM) amounted to 73%. Further, the “MTT, % protection” value in the experiment with 661W or C6 cells [1] (compound 10 μM) is on record as 67%,. Moreover, the “rd1 protection (# of rows)” value in experiment [4] (5 μM) is on record as 5 μM, 3.19 # of rows.

`CCN1C(=O)C(Cc2cccc(OC)c2O)(OC(=O)c2ccccc2)c2cc(Cl)ccc21` (stereo not drawn) [Example 59, 5-chloro-1-ethyl-3-(2-hydroxy-3-methoxybenzyl)-2-oxoindolin-3-yl benzoate]: the “LD Protection (# of rows)” value in the experiment with Balb/c mice (100 μM eyedrops once per day) is on record as 5.98 # of rows. Moreover, in the experiment with 661W or C6 cells [2], the activity at 0.001 µM was 92%. Moreover, in the experiment on 661W or C6 cells [1] (compound 1 μM), the “MTT, % protection” value is reported as 117.4%,.

`CCCN1C(=O)C(O)(CC(=O)c2ccc(OC)nc2OC)c2cc(C)ccc21` (stereo not drawn) [Example 25, 3-(2-(2,6-dimethoxypyridin-3-yl)-2-oxoethyl)-3-hydroxy-5-methyl-1-propylindolin-2-one]: the activity at 0.001 µM in the experiment with 661W or C6 cells [2] is 57%. Moreover, in the experiment with 661W or C6 cells [1] (compound 1 nM), the “MTT, % protection” value is listed as 73.8%,.

On to `COc1cc(CC2(OC(=O)c3ccccc3)C(=O)N(CC(C)C)c3ccc(Cl)cc32)cc(OC)c1OC` (stereo not drawn) [Example 35, 5-chloro-1-isobutyl-2-oxo-3-(3,4,5-trimethoxybenzyl)indolin-3-yl benzoate], for which the activity at 0.0008 µM in the experiment on 661W or C6 cells [2] (compound 800 pM) came out at 55%. Further, the “MTT, % protection” value in the experiment on 661W or C6 cells [1] (compound 800 pM) was 113.5%,.

The record behind these values is patent US9079853B2, “Isatin compounds, compositions and methods for treatment of degenerative diseases and disorders” (MUSC FOUNDATION FOR RESEARCH DEVELOPMENT, priority 2013, dated 2015).
